In the supplement of paper PMC10307832:

How the values were obtained:
Assay in all cases: relative viability (nuclei count vs DMSO), 5 days (fraction); higher = more cells survive
Salubrinal + Lapatinib = compound: O=C(/C=C/c1ccccc1)NC(NC(=S)Nc1cccc2cccnc12)C(Cl)(Cl)Cl [Salubrinal] + CS(=O)(=O)CCNCc1ccc(-c2ccc3ncnc(Nc4ccc(OCc5cccc(F)c5)c(Cl)c4)c3c2)o1 [Lapatinib] (partner 2 µM)
Outline: (§1)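 Cells from lung cancer lines were seeded into 1536-well plates and, one day later, dosed by pin tool. Treatments were either a single drug or a fixed dose of an anchor drug with five library-drug doses (not always all listed) in √10 steps. After 5 days, nuclei were stained in a one-step fixation (final 0.05% Triton X-100, 1% formaldehyde, 1 ug/ml Hoechst) and counted on 4× images, and relative viability is the treated-to-vehicle nuclei ratio, as the median of duplicate plates.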

[1] = compound: Cc1ccc2nc(NCCN)c3ncc(C)n3c2c1 + CS(=O)(=O)N1CCN(Cc2cc3nc(-c4cccc5[nH]ncc45)nc(N4CCOCC4)c3s2)CC1 [Pictilisib] (partner 1 µM)
Outline: as §1

Salubrinal + Alpelisib = compound: O=C(/C=C/c1ccccc1)NC(NC(=S)Nc1cccc2cccnc12)C(Cl)(Cl)Cl [Salubrinal] + Cc1nc(NC(=O)N2CCC[C@H]2C(N)=O)sc1-c1ccnc(C(C)(C)C(F)(F)F)c1 [Alpelisib] (partner 2 µM)
Outline: as §1

[2] = compound: Cc1ccc2nc(NCCN)c3ncc(C)n3c2c1 + CS(=O)(=O)CCNCc1ccc(-c2ccc3ncnc(Nc4ccc(OCc5cccc(F)c5)c(Cl)c4)c3c2)o1 [Lapatinib] (partner 2 µM)
Outline: as §1

Row | Cell Line | relative viability (Salubrinal + Lapatinib; first compound 0.08 µM) | relative viability (Salubrinal + Lapatinib; first compound 0.253 µM) | relative viability (Salubrinal + Lapatinib; first compound 0.8 µM) | relative viability (Salubrinal + Lapatinib; first compound 2.53 µM) | relative viability (Salubrinal + Lapatinib; first compound 8 µM) | relative viability ([1]; first compound 0.04 µM) | relative viability ([1]; first compound 0.1265 µM) | relative viability ([1]; first compound 0.4 µM) | relative viability ([1]; first compound 1.265 µM) | relative viability ([1]; first compound 4 µM) | relative viability (Salubrinal + Alpelisib; first compound 0.08 µM) | relative viability (Salubrinal + Alpelisib; first compound 0.253 µM) | relative viability (Salubrinal + Alpelisib; first compound 0.8 µM) | relative viability (Salubrinal + Alpelisib; first compound 2.53 µM) | relative viability (Salubrinal + Alpelisib; first compound 8 µM) | relative viability ([2]; first compound 0.04 µM) | relative viability ([2]; first compound 0.1265 µM) | relative viability ([2]; first compound 0.4 µM) | relative viability ([2]; first compound 1.265 µM) | relative viability ([2]; first compound 4 µM)
1 | HCC-44 | 0.91 | 0.743 | 1.1 | 0.97 | 0.939 | 0.692 | 0.777 | 0.595 | 0.535 | 0.565 | 0.904 | 0.758 | 0.806 | 0.84 | 0.671 | 0.961 | 0.993 | 1.01 | 0.99 | 1.01
2 | HCC-827 | 0.191 | 0.196 | 0.171 | 0.235 | 0.165 | 0.947 | 0.929 | 0.891 | 0.86 | 1.07 | 0.995 | 1.07 | 0.954 | 0.985 | 0.963 | 0.21 | 0.207 | 0.191 | 0.195 | 0.209
3 | NCI-H2347 | 0.736 | 0.903 | 0.967 | 0.923 | 0.891 | 0.762 | 0.673 | 0.59 | 0.645 | 0.557 | 1.11 | 0.928 | 1.25 | 1.06 | 1.08 | 0.99 | 0.99 | 0.908 | 0.987 | 0.87
4 | PC-14 | 0.412 | 0.347 | 0.331 | 0.29 | 0.382 | 0.753 | 0.736 | 0.757 | 0.481 | 0.583 | 1.05 | 0.756 | 1.14 | 0.968 | 0.562 | 0.398 | 0.307 | 0.41 | 0.289 | 0.295
5 | NCI-H1651 | 1.01 | 0.77 | 1.07 | – | 0.816 | 0.512 | 0.477 | 0.593 | 0.589 | 0.506 | 1.02 | 0.565 | 1.07 | – | 1.02 | 0.853 | 0.879 | 0.841 | 0.894 | 0.737
6 | HARA | 0.709 | 0.651 | 0.819 | 0.748 | 0.828 | 0.524 | 0.362 | 0.436 | 0.39 | 0.418 | 0.948 | 0.931 | 0.848 | 0.937 | 0.78 | 0.748 | 0.863 | 0.553 | 0.691 | 0.821
7 | NCI-H1650 | 0.805 | 0.817 | 0.9 | 0.731 | 0.953 | 0.531 | 0.564 | 0.429 | 0.527 | 0.515 | – | – | – | – | – | 0.887 | 0.764 | 0.434 | 0.836 | 0.65
8 | NCI-H1395 | 0.953 | 0.973 | 1.2 | 0.819 | 0.858 | 0.689 | 0.638 | 0.642 | 0.828 | 0.551 | 1.19 | 1.39 | 0.999 | 1.08 | 0.911 | 0.936 | 0.917 | 0.958 | 0.994 | 0.803
